The source made the active and inactive calls. For most assays here, no stated cut-off is given here; in the data, actives have a measured IC50 and inactives only a lower limit.
Tests used:
Format in all cases: functional
[1] = target: T1, Sentrin-specific protease 8 (Homo sapiens, UniProt Q96LD8); test: SENP8 protease inhibitors, SAR follow-up, biochemical, luminescence, set 2 (AID 588601)
T1 sequence (Q96LD8 whole entry): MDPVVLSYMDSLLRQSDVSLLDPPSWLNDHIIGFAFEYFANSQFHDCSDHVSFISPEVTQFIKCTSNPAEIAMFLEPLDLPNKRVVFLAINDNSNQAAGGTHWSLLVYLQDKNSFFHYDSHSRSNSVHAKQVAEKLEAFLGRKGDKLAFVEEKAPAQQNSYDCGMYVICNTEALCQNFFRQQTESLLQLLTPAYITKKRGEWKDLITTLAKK

[2] = target: T2, Caspase-3 (Homo sapiens, UniProt P42574); test: caspase-3 inhibitors as off-family protease, SAR follow-up, selectivity assay for SENP protease inhibitor project, biochemical, luminescence, set 2 (AID 588599)
T2 sequence (P42574 whole entry): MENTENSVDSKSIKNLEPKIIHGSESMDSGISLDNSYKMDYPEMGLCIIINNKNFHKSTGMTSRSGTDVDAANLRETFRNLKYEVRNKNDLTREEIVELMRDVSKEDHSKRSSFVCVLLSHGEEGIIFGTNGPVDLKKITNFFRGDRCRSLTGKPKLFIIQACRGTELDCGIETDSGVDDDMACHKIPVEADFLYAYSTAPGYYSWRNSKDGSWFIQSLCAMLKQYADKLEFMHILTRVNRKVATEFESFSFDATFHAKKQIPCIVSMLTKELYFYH

[3] = target: T3, Sentrin-specific protease 6 (Homo sapiens, UniProt Q9GZR1); test: SENP6 protease inhibitors, SAR follow-up, biochemical, luminescence, set 2 (AID 588598)
T3 sequence (Q9GZR1 whole entry): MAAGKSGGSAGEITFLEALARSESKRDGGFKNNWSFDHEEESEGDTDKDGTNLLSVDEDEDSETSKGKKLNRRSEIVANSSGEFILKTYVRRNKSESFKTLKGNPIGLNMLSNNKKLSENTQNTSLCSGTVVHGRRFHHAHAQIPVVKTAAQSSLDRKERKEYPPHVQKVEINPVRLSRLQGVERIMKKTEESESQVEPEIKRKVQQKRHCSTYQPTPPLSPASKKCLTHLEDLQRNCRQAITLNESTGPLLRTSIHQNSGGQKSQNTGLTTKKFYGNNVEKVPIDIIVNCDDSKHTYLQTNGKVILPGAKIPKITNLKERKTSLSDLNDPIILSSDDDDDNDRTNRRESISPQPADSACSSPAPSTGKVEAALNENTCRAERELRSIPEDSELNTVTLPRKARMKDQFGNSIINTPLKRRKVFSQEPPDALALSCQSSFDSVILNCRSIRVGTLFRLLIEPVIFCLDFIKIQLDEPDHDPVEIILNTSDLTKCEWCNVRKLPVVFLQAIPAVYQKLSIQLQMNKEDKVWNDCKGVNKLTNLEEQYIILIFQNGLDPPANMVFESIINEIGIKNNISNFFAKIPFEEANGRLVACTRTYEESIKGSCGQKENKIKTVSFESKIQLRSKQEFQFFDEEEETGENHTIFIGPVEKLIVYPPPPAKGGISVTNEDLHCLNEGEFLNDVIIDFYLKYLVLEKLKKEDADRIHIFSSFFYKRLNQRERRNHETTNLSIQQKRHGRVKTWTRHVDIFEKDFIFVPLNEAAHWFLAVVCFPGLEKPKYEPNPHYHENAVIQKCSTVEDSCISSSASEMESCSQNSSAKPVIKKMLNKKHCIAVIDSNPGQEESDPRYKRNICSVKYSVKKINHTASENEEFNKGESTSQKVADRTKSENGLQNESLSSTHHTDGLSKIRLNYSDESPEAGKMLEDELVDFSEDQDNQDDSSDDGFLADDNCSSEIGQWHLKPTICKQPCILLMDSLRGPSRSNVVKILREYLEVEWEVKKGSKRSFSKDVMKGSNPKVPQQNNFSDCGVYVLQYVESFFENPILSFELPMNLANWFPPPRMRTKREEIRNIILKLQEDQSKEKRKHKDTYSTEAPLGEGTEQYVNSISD

[4] = target: T4, Sentrin-specific protease 7 (Homo sapiens, UniProt Q9BQF6); test: SENP7 protease inhibitors, SAR follow-up, biochemical, luminescence, set 2 (AID 588600)
T4 sequence (Q9BQF6 whole entry): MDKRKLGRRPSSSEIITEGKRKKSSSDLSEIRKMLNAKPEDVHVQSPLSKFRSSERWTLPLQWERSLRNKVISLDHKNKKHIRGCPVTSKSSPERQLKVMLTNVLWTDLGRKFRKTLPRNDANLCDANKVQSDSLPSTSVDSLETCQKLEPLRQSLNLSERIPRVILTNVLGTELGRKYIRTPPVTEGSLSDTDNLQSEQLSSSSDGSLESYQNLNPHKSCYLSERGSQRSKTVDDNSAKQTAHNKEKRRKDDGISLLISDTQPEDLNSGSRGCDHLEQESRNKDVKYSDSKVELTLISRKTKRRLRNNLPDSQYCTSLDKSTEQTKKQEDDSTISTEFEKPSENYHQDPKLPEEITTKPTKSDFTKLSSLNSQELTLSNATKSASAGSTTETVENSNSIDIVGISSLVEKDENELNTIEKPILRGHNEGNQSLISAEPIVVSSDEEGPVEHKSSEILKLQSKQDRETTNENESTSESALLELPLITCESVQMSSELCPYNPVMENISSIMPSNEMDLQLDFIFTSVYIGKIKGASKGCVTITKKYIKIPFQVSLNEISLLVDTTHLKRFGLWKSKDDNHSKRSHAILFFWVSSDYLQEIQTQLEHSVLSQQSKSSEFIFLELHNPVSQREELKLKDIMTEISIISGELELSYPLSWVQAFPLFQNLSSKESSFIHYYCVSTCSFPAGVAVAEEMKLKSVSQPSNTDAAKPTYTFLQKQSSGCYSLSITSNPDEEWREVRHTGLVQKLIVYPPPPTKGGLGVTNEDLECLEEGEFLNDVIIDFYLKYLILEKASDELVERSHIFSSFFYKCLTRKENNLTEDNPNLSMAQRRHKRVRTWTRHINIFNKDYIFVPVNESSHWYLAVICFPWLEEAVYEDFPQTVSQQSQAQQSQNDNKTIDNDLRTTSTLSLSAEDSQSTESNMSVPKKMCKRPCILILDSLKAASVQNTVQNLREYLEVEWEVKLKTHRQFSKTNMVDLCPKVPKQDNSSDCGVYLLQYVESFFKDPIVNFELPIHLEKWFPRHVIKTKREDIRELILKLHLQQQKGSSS

[5] = A Cell Based Secondary Assay to Explore Cytotoxicity in THP-1 Cells of Compounds that Modulate Mycobacterium tuberculosis in Media Containing Glycerol versus Media without Glycerol (2).
[6] = A Cell Based Secondary Assay to Explore Cytotoxicity in HepG2 Cells of Compounds that Modulate Mycobacterium tuberculosis in Media Containing Glycerol versus Media without Glycerol (2).
[7] = Vero cell cytotoxicity, cytotoxicity control for M. tuberculosis inhibitor project, purified and synthesized samples, set 3 (AID 504684)
[8] = microbe, parasite or virus in culture; details: Mycobacterium tuberculosis
[9] = target: T3, Sentrin-specific protease 6
[10] = target: T1, Sentrin-specific protease 8
[11] = target: T1, Sentrin-specific protease 8; test: SENP8 protease inhibitors, SAR follow-up, biochemical, luminescence (AID 504501)
[12] = target: T2, Caspase-3; test: SAR Analysis of small molecule inhibitors of Sentrin-specific proteases (SENPs) using a Caspase-3 Selectivity assay. [Related pubchem assays (depositor defined):AID2540, AID2599, AID434973, AID489001]
[13] = target: T4, Sentrin-specific protease 7
[14] = target: T4, Sentrin-specific protease 7; test: SENP7 protease inhibitors, SAR follow-up, biochemical, luminescence (AID 504497)
[15] = target: T3, Sentrin-specific protease 6; test: SAR Analysis of small molecule inhibitors of Sentrin-specific protease 6 (SENP6) using a Luminescent assay. [Related pubchem assays (depositor defined):AID2582, AID2599]
[16] = target: T2, Caspase-3

In the case of `O=S(=O)(c1ccc2[nH]cc(/C=N\NC(=S)Nc3cccc(Cl)c3)c2c1)N1CCCCC1`, the IC50 [1] was > 99 µM (inactive), the IC50 [2] was > 99 µM (inactive) and the IC50 [3] was > 99 µM (inactive). The IC50 [4] was > 99 µM (inactive).
In the case of `Oc1ccccc1/C=N/Nc1ccnc(SCc2ccccc2)n1`, the CC50 [5] was 57.4 µM (active), the CC50 [6] was 18.5 µM (active) and the CC50 [7] was 26.7 µM (active). For the same compound, the CC50 [8] was > 40 µM (active).
For `Cc1cc(O)c(-c2cc(C(=O)Nc3cccnc3)[nH]n2)cc1C`, the IC50 [9] was > 100 µM (inactive), the IC50 [10] was > 100 µM (inactive) and the IC50 [11] was > 99 µM (inactive). For the same compound, the IC50 [12] was 8.64 µM (active), the IC50 [13] was 3.61 µM (active) and the IC50 [14] was 2.97 µM (active). The IC50 [15] was > 99 µM (inactive) and the IC50 [16] was 32.2 µM (active).
